PMC12444472, “BCI inhibits MKP3 by targeting the kinase-binding domain and disrupting ERK2 interaction” (The Journal of Biological Chemistry, 2025)
Numbering of substitutions follows the chain as printed.

What was measured:
Test in all cases: MST affinity of MKP3 mutant
Type in all cases: binding
Details in all cases: full-length mutant
[1] = molecular target: T1, MKP3 T87G (Homo sapiens, UniProt Q16828, T87G)
T1 construct: MKP3(1–381) (MKP3^FL); made in house; host or cells: Escherichia coli BL21(DE3)
T1 sequence (Q16828 1-381 T87G): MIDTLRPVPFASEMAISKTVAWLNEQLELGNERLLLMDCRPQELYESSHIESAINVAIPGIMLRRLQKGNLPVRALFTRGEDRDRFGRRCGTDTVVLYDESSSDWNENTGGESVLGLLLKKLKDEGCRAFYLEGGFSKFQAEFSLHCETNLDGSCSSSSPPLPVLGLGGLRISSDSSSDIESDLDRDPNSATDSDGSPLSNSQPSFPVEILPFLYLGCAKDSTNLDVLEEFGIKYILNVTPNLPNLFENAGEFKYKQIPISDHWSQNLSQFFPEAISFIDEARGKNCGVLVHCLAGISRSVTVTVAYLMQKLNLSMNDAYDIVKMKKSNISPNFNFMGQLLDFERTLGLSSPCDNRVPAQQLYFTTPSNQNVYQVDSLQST
Protocol: (§1) MST measurements were performed using fluorescently labeled proteins and the inhibitor BCI (CAS: 1245792-51-1; TargetMol) on a Monolith instrument (NanoTemper Technologies). The RED–Tris–NTA second-generation dye was dissolved in MST buffer (20 mM Hepes, pH 7.4, 200 mM NaCl, and 0.05% Tween-20) to prepare a 5 μM stock solution. Fluorescent labeling of MKP proteins followed the standard protocol of the MO-L018 RED–Tris–NTA protein labeling kit, leveraging the His-tag–dye interaction.
(§2) The BCI compound was prepared as a 600 to 750 μM stock solution in MST buffer with 10% DMSO to enhance solubility, followed by a 16-point serial dilution. The diluted BCI solutions were thoroughly mixed with labeled MKP proteins (50 nM) at a 1:1 volume ratio, yielding a final volume of 10 μl. The reaction mixtures were incubated in the dark for 10 min at room temperature before being loaded into standard glass capillaries. Measurements were carried out on the Monolith instrument (100% LED, 40% IR laser power) with a 20 s laser on time. The normalized fluorescence values from triplicate measurements were averaged at each concentration and fitted to a 1:1 binding model using the KD model in MO.Affinity software (v3.0.5, NanoTemper Technologies) to determine the binding affinities between MKP proteins and the BCI inhibitor. The final reported Kd value represents the mean ± SD of Kd values obtained from three independent experiments, each fitted separately.
(§3) Figure S3. Affinity measurements of MKP3 mutants with BCI by MST. The binding affinities of full-length MKP3 mutants (E81G, R83G, R85G, R87G, and R89A) to BCI were determined by MST and are presented as mean ± SD (n = 3). Wild-type MKP3 (MKP3^WT) was included as a reference.

[2] = molecular target: T2, MKP3 E81G (Homo sapiens, UniProt Q16828, E81G)
T2 construct: MKP3(1–381) (MKP3^FL); made in house; host or cells: Escherichia coli BL21(DE3)
T2 sequence (Q16828 1-381 E81G): T1 sequence (Q16828 1-381 T87G) with E81G, G87T
Protocol: as §1, §2, §3

[3] = molecular target: T3, MKP3 R85G (Homo sapiens, UniProt Q16828, R85G)
T3 construct: MKP3(1–381) (MKP3^FL); made in house; host or cells: Escherichia coli BL21(DE3)
T3 sequence (Q16828 1-381 R85G): T1 sequence (Q16828 1-381 T87G) with R85G, G87T
Protocol: as §1, §2, §3

[4] = molecular target: T4, MKP3 R89A (Homo sapiens, UniProt Q16828, R89A)
T4 construct: MKP3(1–381) (MKP3^FL); made in house; host or cells: Escherichia coli BL21(DE3)
T4 sequence (Q16828 1-381 R89A): T1 sequence (Q16828 1-381 T87G) with G87T, R89A
Protocol: as §1, §2, §3

affinity for BCI compared with MKP3^WT [1]: affinities similar to the WT
affinity for BCI compared with MKP3^WT [2]: significantly reduced affinity
affinity for BCI compared with MKP3^WT [3]: affinities similar to the WT
affinity for BCI compared with MKP3^WT [4]: significantly reduced affinity
SMILES: O=C1/C(=C/c2ccccc2)C(NC2CCCCC2)c2ccccc21 (stereo not shown) [BCI, (E)-2-benzylidene-3-(cyclohexylamino)-2,3-dihydro-1H-inden-1-one]
